Experimental data reported in US5629430A, “Trifluoromethylpyrroloindolecarboxylic acid ester and process for production thereof” (Kyorin Pharmaceutical Co., Ltd., priority 1992, dated 1997).
≈ marks a conversion by molar mass, not a printed value. Like-named read-outs stand apart in the source and are kept apart here.

Legend:
Colon-26 cells = experiment: Antineoplastic activity, mice having Colon-26 cells transplanted subcutaneously; format: in vivo, mouse (female, CDF1 strain); conditions: Mus musculus, Colon 26, iv, 168 h, read-out: T/C (average tumor weight, dosed vs. solvent-dosed control); for response vs control in vivo at 0.25 mg/kg: i.v. 0.25 mg/kg single dose on sixth day, tumor weighed one week after dosage
Procedure: (§1) The test compound was dissolved in dimethylsulfoxide, and the solution was adequately diluted with 10% Emulfore EL620(produced by Rhone Poulenc Co.) to prepare the test compound solution. The antineoplastic activity was evaluated as below.
To the lateral region of a female mouse (CDF1 strain, 8 to 12 week age), 1×10^6 Colon-26 cells were transplanted subcutaneously. On the sixth day after the transplantation, the test medicine solution-was injected into the tail vein in a single dose. Seven to twelve mice were employed for the solvent-dosed control group, and five mice were employed for the dosed group. One week after the dosage, the tumor was cut out, and the weight thereof was measured. The antineoplastic effect was evaluated by the ratio (T/C) of the average tumor weight of the dosed group (T) to the average tumor weight of the solvent-dosed control group (C).

[1] = system: P388 mouse leukemia cells; experiment: Activity against tumor cell growth (P388, MTT, 72 h); format: cell-based; conditions: read-out: IC50 (50% growth inhibition concentration)
Outline: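 P388 cells at 1.5×10^5 cells/ml in RPMI1640 with 10% FBS, 2 mM glutamine and 5 μM 2-hydroxyethyldisulfide; DMSO-dissolved compound diluted in medium, 72 h at 37 °C, 5% CO2. MTT added for 3 h, formazan dissolved in HCl-isopropanol, A540 read. IC50 from absorbance ratio versus untreated cells.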

Sarcoma-180 cells = experiment: Antineoplastic activity, mice having Sarcoma-180 cells transplanted subcutaneously; format: in vivo, mouse (female, CDR strain); conditions: Mus musculus, Sarcoma-180, iv, 144 h, read-out: T/C (average tumor weight, dosed vs. solvent-dosed control); for response vs control in vivo at 0.25 mg/kg: i.v. 0.25 mg/kg single dose, tumor weighed six days after dosage
Outline: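 Female CDR mice, 5–6 weeks, implanted subcutaneously with 3.6×10^6 to 5×10^6 Sarcoma-180 cells; next day a single tail-vein dose of compound in DMSO diluted with 10% Emulfore EL620. Tumors excised and weighed six days post-dose; efficacy expressed as T/C ratio of mean tumor weights versus solvent controls.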

P388 cells = experiment: Antineoplastic activity, mice having P388 cells transplanted in abdominal cavity; format: in vivo, mouse (female, CDF1 strain); conditions: for T/C (average survival days, dosed vs. solvent-dosed control): next day after transplantation, >=130% effective; for T/C in words: cure (Survived for 60 days or longer): two mice, Cured: Survived for 60 days or longer
Procedure: as §1
To the abdominal cavity of a female mouse (CDF1 strain, 8 to 9 week age), 1×10^6 P388 cells were transplanted. Next day, the test medicine solution was injected intraperitonealy in a single dose. Five to eight mice were employed for the solvent-dosed control group, and two mice were employed for each of the dosed groups. The antineoplastic effect was evaluated by the ratio (T/C, %) of the average survival days of the dosed group (T) to the average survival days of the solvent-dosed control group(C). The T/C ratio of 130% or more is evaluated to be effective.
"Cured": Survived for 60 days or longer

[2] = P388 mouse leukemia cells, 72 h, 37° C., MTT

## COC(=O)c1c(C(F)(F)F)[nH]c2c1C13CC1CN(C(=O)c1cc4cc(OC)c(OC)c(OC)c4[nH]1)C3=CC2=O (stereo not shown) [Example 20, methyl 6-trifluoromethyl-2-(5,6,7-trimethoxy1H-indol-2-ylcarbonyl)-1,2,8,8a-tetrahydrocyclopropa[c]-pyrrolo[3,2e]indole-4 (5H)-one-7-carboxylate]
Colon-26 cells
  response vs control in vivo at 0.25 mg/kg: 15%
[1]; [2]
  IC50: 0.24 ng/mL (≈ 0.44 nM)
Sarcoma-180 cells; *(n = 4)
  response vs control in vivo at 0.25 mg/kg: 36%
P388 cells; i.p. 0.125 mg/kg single dose
  T/C (average survival days, dosed vs. solvent-dosed control): 194%

## COC(=O)c1c(C(F)(F)F)[nH]c2c1C13CC1CN(C(=O)c1cc4cc(OC)ccc4[nH]1)C3=CC2=O (stereo not shown) [Example 22, Methyl 2-(5-methoxy-1H-indol-2-ylcarbonyl)-6-trifluoromethyl-1,2,8,8a-tetrahydrocyclopropa[c]pyrrolo[3,2-e]indole-4 (5H)-one-7-carboxylate]
[1]; [2]
  IC50: 0.23 ng/mL (≈ 0.474 nM)
P388 cells; i.p. 0.125 mg/kg single dose
  T/C (average survival days, dosed vs. solvent-dosed control): 169%

## COC(=O)c1c(C(F)(F)F)[nH]c2c1C13CC1CN(C(=O)c1cc4cc(NC(=O)c5cc6ccccc6[nH]5)ccc4[nH]1)C3=CC2=O (stereo not shown) [Example 23, Methyl 2-[5-[(1H-indol-2-ylcarbonyl)amino]-1H-indol-2-ylcarbonyl]-6-trifluoromethyl-1,2,8,8a-tetrahydrocyclopropa[c]pyrrolo[3,2-e]indole-4 (5H)-one-7-carboxylate]
Colon-26 cells
  response vs control in vivo at 0.25 mg/kg: 12%
[1]; [2]
  IC50: 0.86 ng/mL (≈ 1.4 nM)
Sarcoma-180 cells
  response vs control in vivo at 0.25 mg/kg: 16%
P388 cells; i.p. 0.25 mg/kg single dose
  T/C in words: cure (Survived for 60 days or longer): Both cured

## COC(=O)c1c(C(F)(F)F)[nH]c2c1C13CC1CN(C(=O)c1cc4cc(NC(=O)c5cc6ccccc6o5)ccc4[nH]1)C3=CC2=O (stereo not shown) [Example 24, Methyl 2-[5-[(benzofuran-2-ylcarbonyl)amino]-1H-indol-2-ylcarbonyl]-6-trifluoromethyl-1,2,8,8a-tetrahydrocyclopropa[c]pyrrolo[3,2-e]indole-4 (5H)-one-7-carboxylate]
Colon-26 cells
  response vs control in vivo at 0.25 mg/kg: 11%
[1]; [2]
  IC50: 0.53 ng/mL (≈ 0.862 nM)
Sarcoma-180 cells
  response vs control in vivo at 0.25 mg/kg: 17%
P388 cells; i.p. 0.125 mg/kg single dose
  T/C in words: cure (Survived for 60 days or longer): Both cured

## COC(=O)c1c(C(F)(F)F)[nH]c2c(O)cc3c(c12)C(CBr)CN3C(=O)c1cc2cc(OC)c(OC)c(OC)c2[nH]1 (stereo not shown) [Example 34, methyl 1-bromomethyl-5-hydroxy-7-trifluoromethyl-3-(5,6,7-trimethoxy-1H-indol-2-ylcarbonyl)-1,2,3,6-tetrahydropyrrolo[3,2e]indole-8-carboxylate]
[1]; [2]
  IC50: 0.15 ng/mL (≈ 0.239 nM)
Sarcoma-180 cells
  response vs control in vivo at 0.25 mg/kg: 37%
P388 cells; i.p. 0.125 mg/kg single dose
  T/C (average survival days, dosed vs. solvent-dosed control): 189%

## COC(=O)c1c(C(F)(F)F)[nH]c2c(O)cc3c(c12)C(CBr)CN3C(=O)c1cc2cc(NC(=O)c3cc4ccccc4[nH]3)ccc2[nH]1 (stereo not shown) [Example 36, Methyl 1-bromomethyl-5-hydroxy-3-[5-[(1H-indol-2-ylcarbonyl)amino]-1H-indol-2-ylcarbonyl)-7-trifluoromethyl-1,2,3,6-tetrahydropyrrolo[3,2-e]indole-8-carboxylate]
[1]; [2]
  IC50: 1.3 ng/mL (≈ 1.87 nM)
Sarcoma-180 cells
  response vs control in vivo at 0.25 mg/kg: 14%
P388 cells; i.p. 0.125 mg/kg single dose
  T/C (average survival days, dosed vs. solvent-dosed control): 384%

## COC(=O)c1c(C(F)(F)F)[nH]c2c(OC(=O)N3CCN(C)CC3)cc3c(c12)C(CCl)CN3C(=O)c1cc2cc(OC)c(OC)c(OC)c2[nH]1 (stereo not shown) [Example 46]
[1]; Mus musculus, P388, 72 h
  IC50: 22 ng/mL (≈ 31.1 nM)
P388 cells; i.p. 4 mg/kg single dose
  T/C (average survival days, dosed vs. solvent-dosed control): 221%

## COC(=O)c1c(C(F)(F)F)[nH]c2c(OC(=O)N3CCN(C)CC3)cc3c(c12)C(CBr)CN3C(=O)c1cc2cc(OC)c(OC)c(OC)c2[nH]1 (stereo not shown) [Example 47, Methyl 1-bromomethyl-5-(4-methylpiperazin-1-ylcarbonyl)oxy-7-trifluoromethyl-3-(5,6,7-trimethoxy-1H-indol-2-ylcarbonyl)-1,2,3,6-tetrahydropyrrolo[3,2-e]indole-8-carboxylate]
Colon-26 cells
  response vs control in vivo at 1 mg/kg: 7%
[1]; Mus musculus, P388, 72 h
  IC50: 31 ng/mL (≈ 41.2 nM)
Sarcoma-180 cells
  response vs control in vivo at 1 mg/kg: 19%
P388 cells; i.p. 0.5 mg/kg single dose
  T/C in words: cure (Survived for 60 days or longer): Both cured

## COC(=O)c1c(C(F)(F)F)[nH]c2c(OC(=O)N3CCN(C)CC3)cc3c(c12)C(CCl)CN3C(=O)c1cc2cc(NC(=O)c3cc4ccccc4o3)ccc2[nH]1 (stereo not shown) [Example 48]
Colon-26 cells
  response vs control in vivo at 1 mg/kg: 6%
[1]; Mus musculus, P388, 72 h
  IC50: 80 ng/mL (≈ 103 nM)
Sarcoma-180 cells
  response vs control in vivo at 1 mg/kg: 8%
P388 cells; i.p. 0.5 mg/kg single dose
  T/C in words: cure (Survived for 60 days or longer): Both cured

## COC(=O)c1c(C(F)(F)F)[nH]c2c(OC(=O)N3CCN(C)CC3)cc3c(c12)C(CBr)CN3C(=O)c1cc2cc(NC(=O)c3cc4ccccc4o3)ccc2[nH]1 (stereo not shown) [Example 49]
Colon-26 cells
  response vs control in vivo at 0.5 mg/kg: 9%
[1]; Mus musculus, P388, 72 h
  IC50: 89 ng/mL (≈ 108 nM)
Sarcoma-180 cells
  response vs control in vivo at 0.5 mg/kg: 12%
P388 cells; i.p. 0.5 mg/kg single dose
  T/C in words: cure (Survived for 60 days or longer): Both cured
